Measurements reported in patent US20090012056A1, “Quinoline Compounds Capable of Binding the Cb2 and/or the 5-Ht6 Receptor” (GLAXO GROUP LIMITED, priority 2005, published 2009).
Counter-ions that a name gives are not always drawn.

molecular target: T1, human cannabinoid CB2 receptor (Homo sapiens, UniProt P34972); assay: Cannabinoid CB2 receptor agonist activity in yeast cells expressing the human CB2 receptor (FDGlu fluorescence); type: cell-based; details: 24 hours at 30° C., read-out: pEC50 at the CB2 receptor (agonist activity) (converted)
T1 construct: expressed in transfected cells; host or cells: Saccharomyces cerevisiae strain MMY23
T1 sequence (P34972 whole entry): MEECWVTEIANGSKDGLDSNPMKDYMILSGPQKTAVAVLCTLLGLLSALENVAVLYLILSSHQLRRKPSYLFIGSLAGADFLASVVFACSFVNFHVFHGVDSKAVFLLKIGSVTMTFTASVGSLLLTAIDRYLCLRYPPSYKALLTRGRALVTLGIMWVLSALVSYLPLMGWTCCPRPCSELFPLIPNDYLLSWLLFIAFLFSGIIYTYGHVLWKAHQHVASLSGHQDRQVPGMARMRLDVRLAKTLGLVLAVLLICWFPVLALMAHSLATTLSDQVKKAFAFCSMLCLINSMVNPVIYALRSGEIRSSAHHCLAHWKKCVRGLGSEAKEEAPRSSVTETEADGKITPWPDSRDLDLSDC
From the text: Yeast (Saccharomyces cerevisiae) cells expressing the human cannabinoid CB2 receptor were generated by integration of an expression cassette into the ura3 chromosomal locus of yeast strain MMY23. This cassette consisted of DNA sequence encoding the human CB2 receptor flanked by the yeast GPD promoter to the 5′ end of CB2 and a yeast transcriptional terminator sequence to the 3′ end of CB2. MMY23 expresses a yeast/mammalian chimeric G-protein alpha subunit in which the C-terminal 5 amino acids of Gpa1 are replaced with the C-terminal 5 amino acids of human Gαi1/23 (as described in Brown et al. (2000), Yeast 16:11-22). Cells were grown at 30° C. in liquid Synthetic Complete (SC) yeast media (Guthrie and Fink (1991), Methods in Enzymology, Vol. 194) lacking uracil, tryptophan, adenine and leucine to late logarithmic phase (approximately 6 OD600/ml).
Agonists were prepared as 10 mM solutions in DMSO. EC50 values (the concentration required to produce 50% maximal response) were estimated using 4 fold dilutions of between 3- and 5-fold (BiomekFX, Beckman) into DMSO. Agonist solutions in DMSO (1% final assay volume) were transferred into black microtitre plates from NUNC Greiner (384-well). Cells were suspended at a density of 0.2 OD600/ml in SC media lacking histidine, uracil, tryptophan, adenine and leucine and supplemented with 10 mM 3-aminotriazole, 0.1M sodium phosphate pH 7.0, and 120 μM fluorescein di-β-D-glucopyranoside (FDGlu). This mixture (50 ul per well) was added to agonist in the assay plates (Multidrop 384, Labsystems). After incubation at 30° C. for 24 hours, fluorescence resulting from degradation of FDGlu to fluorescein due to exoglucanase, an endogenous yeast enzyme produced during agonist-stimulated cell growth, was determined using a fluorescence microtitre plate reader (Tecan Spectrofluor or LJL Analyst excitation wavelength: 485 nm; emission wavelength: 535 nm). Fluorescence was plotted against compound concentration and iteratively curve fitted using a four parameter fit to generate a concentration effect value.
Efficacy (Emax) was calculated from the equation
Emax=Max[compound X]−Min[compound X]/Max[HU210]−Min[HU210]×100% • where Max[compound X] and Min[compound X] are the fitted maximum and minimum respectively from the concentration effect curve for compound X, and Max[HU210] and Min[HU210] are the fitted maximum and minimum respectively from the concentration effect curve for (6aR,10aR)-3-(1,1′-Dimethylheptyl)-6a,7,10,10a-tetrahydro-1-hydroxy-6,6-dimethyl-6H-dibenzo[b,d]pyran-9-methanol (HU210; available from Tocris). Equieffective molar ratio (EMR) values were calculated from the equation
EMR=EC50[compound X]/EC50[HU210] • Where EC50 [compound X] is the EC50 of compound X and EC50 [HU210] is the EC50 of HU210. • pEC50 is the negative log of the EC50.

SMILES | EC50 [µM]
O=S(=O)(c1ccccc1)c1cnc2c(CN3CCCC3)cccc2c1 [Example 1, 3-(Phenylsulfonyl)-8-(1-pyrrolidinylmethyl)quinoline hydrochloride] | ≤ 10
CN1CCN(Cc2cccc3cc(S(=O)(=O)c4ccccc4)cnc23)CC1 [Example 3, 8-[(4-Methyl-1-piperazinyl)methyl]-3-(phenylsulfonyl)quinoline] | > 31.6
O=S(=O)(c1ccccc1)c1cnc2c(CN3CCC(F)(F)CC3)cccc2c1 [Example 5, 8-[(4,4-Difluoro-1-piperidinyl)methyl]-3-(phenylsulfonyl)quinoline] | < 1
CC1CCC(C)N1Cc1cccc2cc(S(=O)(=O)c3ccccc3)cnc12 (stereo not shown) [Example 6, 8-[(2,5-Dimethyl-1-pyrrolidinyl)methyl)-3-(phenylsulfonyl)quinoline] | ≤ 10
O=S(=O)(c1ccccc1)c1cnc2c(CN3CCC(F)(F)C3)cccc2c1 [Example 33, 8-[(3,3-Difluoro-1-pyrrolidinyl)methyl]-3-(phenylsulfonyl)quinoline hydrochloride] | < 1
O=S(=O)(c1ccccc1)c1cnc2c(CN3CC(F)(F)C3)cccc2c1 [Example 34, 8-[(3,3-Difluoro-1-azetidinyl)methyl]-3-(phenylsulfonyl)quinoline hydrochloride] | < 1
CC(c1cccc2cc(S(=O)(=O)c3ccccc3)cnc12)N1CC(F)(F)C1 (stereo not shown) [Example 35, 8-[1-(3,3-Difluoro-1-azetidinyl)ethyl]-3-(phenylsulfonyl)quinoline] | < 1
CC(c1cccc2cc(S(=O)(=O)c3ccccc3)cnc12)N1CCC(F)(F)C1 (stereo not shown) [Example 36, 8-[1-(3,3-Difluoro-1-pyrrolidinyl)ethyl]-3-(phenylsulfonyl)quinoline] | < 1
CC(c1cccc2cc(S(=O)(=O)c3ccccc3)cnc12)N1CCCC(F)(F)C1 (stereo not shown) [Example 37, 8-[1-(3,3-Difluoro-1-piperidinyl)ethyl]-3-(phenylsulfonyl)quinoline] | < 1
O=S(=O)(c1ccc(F)cc1)c1cnc2c(CN3CCCC(F)(F)C3)cccc2c1 [Example 38, 8-[(3,3-Difluoro-1-piperidinyl)methyl]-3-[(4-fluorophenyl)sulfonyl]quinoline hydrochloride] | < 1
Cc1ccc(S(=O)(=O)c2cnc3c(CN4CCCC(F)(F)C4)cccc3c2)cc1 [Example 39, 8-[(3,3-Difluoro-1-piperidinyl)methyl]-3-[(4-methylphenyl)sulfonyl]quinoline hydrochloride] | < 1
O=S(=O)(c1ccc(Cl)cc1)c1cnc2c(CN3CCCC(F)(F)C3)cccc2c1 [Example 40, 3-[(4-Chlorophenyl)sulfonyl]-8-[(3,3-difluoro-1-piperidinyl)methyl]quinolinehydrochloride] | < 1
O=S(=O)(c1ccc(Br)cc1)c1cnc2c(CN3CCCC(F)(F)C3)cccc2c1 [Example 41, 3-[(4-Bromophenyl)sulfonyl]-8-[(3,3-difluoro-1-piperidinyl)methyl]quinolinehydrochloride] | < 1
COc1ccc(S(=O)(=O)c2cnc3c(CN4CCCC(F)(F)C4)cccc3c2)cc1Cl [Example 42, 3-{[3-Chloro-4-(methyloxy)phenyl]sulfonyl}-8-[(3,3-difluoro-1-piperidinyl)methyl]quinolinehydrochloride] | ≤ 10
COc1ccc(S(=O)(=O)c2cnc3c(CN4CCCC(F)(F)C4)cccc3c2)cc1NC(C)=O [Example 43, N-[5-({8-[(3,3-Difluoro-1-piperidinyl)methyl]-3-quinolinyl}sulfonyl)-2-(methyloxy)phenyl]acetamidehydrochloride] | < 1
COc1ccc(S(=O)(=O)c2cnc3c(CN4CCCC(F)(F)C4)cccc3c2)cc1OC [Example 44, 3-{[3,4-Bis(methyloxy)phenyl]sulfonyl}-8-[(3,3-difluoro-1-piperidinyl)methyl]quinolinehydrochloride] | < 1
Cc1ccc(S(=O)(=O)c2cnc3c(CN4CCCC(F)(F)C4)cccc3c2)cc1Cl [Example 45, 3-[(3-Chloro-4-methylphenyl)sulfonyl]-8-[(3,3-difluoro-1-piperidinyl)methyl]quinolinehydrochloride] | < 1
O=S(=O)(c1ccc2ccccc2c1)c1cnc2c(CN3CCCC(F)(F)C3)cccc2c1 [Example 46, 8-[(3,3-Difluoro-1-piperidinyl)methyl]-3-(2-naphthalenylsulfonyl)quinolinehydrochloride] | < 1

molecular target: T2, human cloned 5-HT6 receptors (Homo sapiens, UniProt P50406); assay: Cyclase assay (cAMP production in membranes of HeLa 5HT6 cells, antagonism of 5-HT); type: biochemical; details: cyclase assay with 5-HT at 4xEC50, read-out: fpKi (functional pKi, antagonist potency) (converted)
T2 construct: expressed in transfected cells; host or cells: HeLa cells (membranes)
T2 sequence (P50406 whole entry): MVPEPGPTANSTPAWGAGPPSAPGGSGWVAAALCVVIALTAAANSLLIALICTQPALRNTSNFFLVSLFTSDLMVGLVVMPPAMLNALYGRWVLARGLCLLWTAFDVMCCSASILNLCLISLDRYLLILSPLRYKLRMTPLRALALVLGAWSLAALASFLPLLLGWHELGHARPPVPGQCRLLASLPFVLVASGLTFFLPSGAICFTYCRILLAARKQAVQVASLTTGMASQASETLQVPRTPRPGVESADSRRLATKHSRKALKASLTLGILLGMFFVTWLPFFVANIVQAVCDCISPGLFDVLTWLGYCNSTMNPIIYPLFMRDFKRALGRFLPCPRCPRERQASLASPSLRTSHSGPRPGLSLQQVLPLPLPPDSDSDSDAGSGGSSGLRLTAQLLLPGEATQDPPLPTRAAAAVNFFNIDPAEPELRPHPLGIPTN
Experimental: 0.5 μl of test compound in 100% dimethylsulfoxide (DMSO) was added to a white, solid 384 well assay plate (for dose response measurements the top of the concentration range is 7.5 μM final). 10 μl of washed membranes of HeLa 5HT6 cells (for preparation see WO 98/27081) in basic buffer (50 mM HEPES pH 7.4 (KOH), 1 mM MgCl2, 100 mM NaCl, 1 μl/ml 3-isobutyl-1-methylxanthine (IBMX) (Sigma-Aldrich)) was added to all wells followed by 10 μl 2×ATP buffer (100 μl/ml ATP and 1 μl/ml 3-Isobutyl-1-methylxanthine (IBMX) (Sigma-Aldrich)) with 5-HT (at a concentration equivalent to a dose response of 4×EC50). The resultant mixture was then incubated at room temperature for 30-45 minutes to allow cAMP production.
cAMP production was then measured using the DiscoveRx™ HitHunter™ chemiluminescence cAMP assay kit (DiscoveRx Corporation, 42501 Albrae Street, Fremont, Calif. 94538; Product Code: 90-0004L) or any other suitable cAMP measurement assay.
IC50 values were estimated from arbitrary designated unit (ADU) measurements from a Perkin Elmer Viewlux instrument using a four parameter logistic curve fit within EXCEL (Bowen, W. P. and Jerman, J. C. (1995), Nonlinear regression using spreadsheets. Trends in Pharmacol. Sci., 16, 413-417). Functional Ki values were calculated using the method of Cheng, Y. C. and Prussof, W. H. (Biochemical Pharmacol (1973) 22 3099-3108). pIC50 and fpKi are the negative log 10 of the molar IC50 and functional Ki respectively.

SMILES | Ki [µM]
O=S(=O)(c1ccccc1)c1cnc2c(CN3CCCC3)cccc2c1 [Example 1, 3-(Phenylsulfonyl)-8-(1-pyrrolidinylmethyl)quinoline hydrochloride] | < 0.1
CN1CCN(Cc2cccc3cc(S(=O)(=O)c4ccccc4)cnc23)CC1 [Example 3, 8-[(4-Methyl-1-piperazinyl)methyl]-3-(phenylsulfonyl)quinoline] | < 0.1
O=S(=O)(c1ccccc1)c1cnc2c(CN3CCC(F)(F)CC3)cccc2c1 [Example 5, 8-[(4,4-Difluoro-1-piperidinyl)methyl]-3-(phenylsulfonyl)quinoline] | < 0.1
CC1CCC(C)N1Cc1cccc2cc(S(=O)(=O)c3ccccc3)cnc12 (stereo not shown) [Example 6, 8-[(2,5-Dimethyl-1-pyrrolidinyl)methyl)-3-(phenylsulfonyl)quinoline] | < 0.1
O=S(=O)(c1ccccc1)c1cnc2c(CCN3CCCC3)cccc2c1 [Example 10, 3-(Phenylsulfonyl)-8-[2-(1-pyrrolidinyl)ethylquinoline hydrochloride] | < 0.1
O=S(=O)(c1ccccc1)c1cnc2c(CCN3CCCCC3)cccc2c1 [Example 11, 3-(Phenylsulfonyl)-8-[2-(1-piperidiny)ethyl]quinoline hydrochloride] | < 0.1
O=S(=O)(c1ccccc1)c1cnc2c(CCCN3CCCC3)cccc2c1 [Example 12, 3-(Phenylsulfonyl)-8-[3-(1-pyrrolidinyl)propyl]quinoline hydrochloride] | < 0.1
O=S(=O)(c1ccccc1)c1cnc2c(CCCN3CCCCC3)cccc2c1 [Example 13, 3-(Phenylsulfonyl)-8-[3-(1-piperidinyl)propyl]quinoline] | < 0.1
O=S(=O)(c1ccccc1)c1cnc2c(CCCN3CCOCC3)cccc2c1 [Example 14] | < 0.1
CN(C)CCCc1cccc2cc(S(=O)(=O)c3ccccc3)cnc12 [Example 15, N,N-Dimethyl-3-[3-(phenylsulfonyl)-8-quinolinyl]-1-propanamine] | < 0.1
CC(c1cccc2cc(S(=O)(=O)c3ccccc3)cnc12)N1CCCC1 (stereo not shown) [Example 16, 3-(Phenylsulfonyl)-8-(1-pyrrolidin-1-ylethyl)quinoline hydrochloride] | < 0.1
CC(c1cccc2cc(S(=O)(=O)c3ccccc3)cnc12)N1CCCCC1 (stereo not shown) [Example 17, 3-(phenylsulfonyl)-8-(1-piperidin-1-ylethyl)quinoline] | < 0.1
CC(c1cccc2cc(S(=O)(=O)c3ccccc3)cnc12)N1CCOCC1 (stereo not shown) [Example 18, 8-(1-morpholin-4-ylethyl)-3-(phenylsulfonyl)-quinoline] | ≤ 1
CC(c1cccc2cc(S(=O)(=O)c3ccccc3)cnc12)N(C)C (stereo not shown) [Example 19, N,N-dimethyl-1-[3-(phenylsulfonyl)quinolin-8-yl]ethanamine] | < 0.1
CCN(C)C(C)c1cccc2cc(S(=O)(=O)c3ccccc3)cnc12 (stereo not shown) [Example 21, N-Ethyl-N-methyl-1-[3-(phenylsulfonyl)quinolin-8-yl]ethanamine hydrochloride] | < 0.1
CC(C)(c1cccc2cc(S(=O)(=O)c3ccccc3)cnc12)N1CCCC1 [Example 22, 8-(1-Methyl-1-pyrrolidin-1-ylethyl)-3-(phenylsulfonyl)quinoline hydrochloride] | ≤ 1
